Data as given in US20100022559A1, “BISOXIMES AS FUNGICIDES” (BAYER CROPSCIENCE AG, priority 2006, published 2010).

Experiment: logP determination by HPLC on a reversed-phase column (C 18), EEC Directive 79/831 Annex V.A8
Type: physicochemical
Procedure: The stated logP values were determined in accordance with EEC Directive 79/831 Annex V.A8 by HPLC (high performance liquid chromatography) on a reversed-phase column (C 18). Temperature: 43° C.

[1] = method marker [b], isomer A / isomer B / isomer mixture as noted in the cell
[2] = method marker [a] (footnote not shown), isomer A / isomer B / isomer mixture as noted in the cell
[3] = [a] acidic range, pH 2.3, 0.1% aqueous phosphoric acid and acetonitrile

## CC(=NOC(=O)NCCCC(C)CNC(=O)ON=C(C)c1ccc(C)c(C)n1)c1ccc(C)c(C)n1 (centres unmarked) [compound 861]
Value marked [a]
  logP: 2.55^[a]

## CCC(=NOCC1(CON=C(CC)c2cccc(C)n2)CC(c2ccc(Cl)cc2)=NO1)c1cccc(C)n1 (centres unmarked) [compound 612]
Method marked [b] in Table 1
  logP: 5.84^[b]

## CC(=NOC(=O)N(C)C(=O)ON=C(C)c1cc(C)cc(C)n1)c1cc(C)cc(C)n1 [compound 676]
Method marked [b] in Table 1
  logP: 2.21^[b]

## CC(=NOCC1(CON=C(C)c2cc(C)cc(C)n2)CC(CC(C)C)=NO1)c1cc(C)cc(C)n1 (centres unmarked) [compound 641]
Method marked [b] in Table 1
  logP: 2.66^[b]

## CC(=NOCC(C)(C)CO/N=C(\C)c1cccc(C)n1)c1cc(C)cc(C)n1 [(1E/Z)-1-(4,6-dimethylpyridin-2-yl)ethanone O-[2,2-dimethyl-3-({[(1E)-1-(6-methylpyridin-2-yl)ethylidene]amino}oxy)propyl]oxime]
reversed-phase HPLC column (C 18), HCO2H, HPLC reversed-phase column (C 18), 43° C., read-out: logP (HCO2H)
  chromatographic logP: 3.33

## CCc1cc(CC)nc(C(C)=NOCC(C)CON=C(C)c2cc(CC)cc(CC)n2)c1 (centres unmarked) [compound 574]
Method marked [a] in Table 1
  logP: 5.95^[a]

## CC(=NOCC(C)CON=C(C)c1ccc[nH]1)c1ccc[nH]1 (mixture of isomers) [compound 566]
Method marked [b] in Table 1
  logP: 3.47^[b]
Method marked [c] in Table 1
  logP: 3.62^[c]

## C=CCCC(=NOCCCCCCON=C(C)c1cccc(C)n1)c1ncccc1C (single isomer, unassigned) [compound 524]
Value marked [b]
  logP: 5.65^[b] (isomer B)

## CC(=NOCCON=C(C)c1sc(C)nc1C)c1sc(C)nc1C [compound 53]
[1]
  logP: 2.70^[b]

## Cc1cccnc1C(=NOCC(C)CON=C(c1ccccc1)c1ncccc1C)c1ccccc1 (centres unmarked) [compound 658]
Method marked [a] in Table 1
  logP: 4.54^[a]

## Cc1cc(C)cc(/C(N)=N/OCc2ccccc2CO/N=C(\N)c2cc(C)cc(C)c2)c1 [compound 710]
Method marked [b] in Table 1
  logP: 3.68^[b]

## CC(=NOCC(C)CON=C(C)c1cnnc(C)n1)c1cccc(C)n1 (centres unmarked) [compound 426]
Value marked [b]
  logP: 3.24^[b]

## CC(=NOCCCCCCON=C(C)c1cncc(C)n1)c1cccc(C)n1 [compound 466]
Value marked [b]
  logP: 4.8^[b]

## COCc1cccc(C(C)=NOCC(C)CON=C(C)c2cccc(COC)n2)n1 (centres unmarked) [Compound 290]
Value marked [b]
  logP: 4.92^[b]

## CC(=NOCC(C)CON=C(C)c1ncccc1C)c1ncccc1C (centres unmarked) [compound 128]
[2]
  logP: 3.12^[a]

## CC[Si](CC)(CON=C(C)c1cc(C)cc(C)n1)CON=C(C)c1cc(C)cc(C)n1 [Compound 787]
Value marked [a]
  logP: 5.05^[a]
Value marked [b]
  logP: 5.05^[b]
Value marked [c]
  logP: 7.36^[c]

## CC(=NOC[C@@H]1O[C@H]1CON=C(C)c1cccc(C)n1)c1cccc(C)n1 [compound 285]
Value marked [b]
  logP: 2.17^[b]

## CCCC(=NOCCON=C(CCC)c1cccc(C)n1)c1cccc(C)n1 [compound 226]
[2]
  logP: 5.18^[a]

## CCOC(=O)C(C)(CON=C(C)c1cccc(C)n1)CON=C(C)c1cccc(C)n1 (centres unmarked) [compound 853]
Value marked [b]
  logP: 4.06^[b]
Value marked [c]
  logP: 5.00^[c]

## C/C(=N\OCCCCON)c1ccc(C)c(C)n1 [XII-17]
[3]
  logP: 0.51^[a]

## Cc1cccc(C(=NOCC2(CON=C(c3cccc(C)n3)C3CC3)CC(C(C)(C)C)=NO2)C2CC2)n1 (mixture of isomers) [compound 651]
Method marked [a] in Table 1
  logP: 3.98^[a]

## C/C(=N\OCC(C)CON)c1cc(C(F)(F)F)cc(C)n1 (racemic) [XII-15]
[3]
  logP: 2.33^[a]
[b] LC-MS, acidic range, pH 2.7, 0.1% aqueous formic acid and acetonitrile
  logP: 2.33^[b]
[c] LC-MS, neutral range, pH 7.8, 0.001 molar aqueous ammonium bicarbonate solution and acetonitrile
  logP: 3.38^[c]

## C=C(CON=C(C)c1cccc(C)n1)CON=C(C)c1ncc(C(F)(F)F)cc1Cl (single isomer, unassigned) [compound 157]
[1]
  logP: 4.42^[b] (isomer A)

## C=C(CON=C(C)c1cccnc1Cl)CON=C(C)c1cccnc1Cl [compound 148]
[1]
  logP: 3.53^[b]

## C=C(CON=C(C)c1ncccc1Cl)CON=C(C)c1ncccc1Cl [compound 144]
[1]
  logP: 3.64^[b]

## CC(=NOC/C=C\CON=C(C)c1cccc(C)n1)c1cccc(C)n1 [compound 778]
Value marked [b]
  logP: 3.31^[b]

## Cc1cccnc1C(=NOCCCON=C(c1ccccc1)c1ncccc1C)c1ccccc1 [compound 657]
Method marked [a] in Table 1
  logP: 4.17^[a]

## COc1ccc(C(C)=NOCCCCCCON=C(C)c2cccc(C)n2)cc1OC [compound 392]
Value marked [b]
  logP: 4.91^[b]

## CC(=NOCC(C)CON=C(C)c1ccc(C)nc1)c1ccc(C)nc1 (mixture of isomers) [compound 233]
[2]
  logP: 1.50^[a]

## C=C(CON=C(C)c1cccc(OC)c1)CON=C(C)c1cccc(C)n1 [compound 470]
Value marked [b]
  logP: 4.46^[b]

## C=C(CON=C(C)c1cccc(C)n1)CON=C(c1cccc(C)n1)C(C)C [Compound 359]
Value marked [b]
  logP: 4.72^[b] (isomer B)

## C=C(CON=C(C)c1cccc(C)n1)CON=C(CCC)c1cccc(C)n1 [compound 355]
Value marked [b]
  logP: 4.87^[b]

## C=C(CON=C(OCC)c1cccc(C)n1)CON=C(OCC)c1ccc(C)c(C)n1 [Compound 843]
Value marked [a]
  logP: 2.25^[a]

## CCc1nc(C(C)=NOCC(C)CON=C(C)c2ccc(C)c(CC)n2)ccc1C (centres unmarked) [Compound 310]
Value marked [b]
  logP: 6.48^[b]

## CC(=NOCCCON=C(C)c1cccc(C(F)F)n1)c1cccc(C(F)F)n1 [compound 521]
Value marked [a]
  logP: 5.21^[a]

## C=C(CON=C(C)c1ccccn1)CON=C(C)c1cccc(C)n1 (single isomer, unassigned) [Compound 17]
[1]
  logP: 3.10^[b] (isomer A)

## CC(=NOC[Si](C)(C)CON=C(C)c1ccc(C)c(C)n1)c1ccc(C)c(C)n1 [Compound 870]
Value marked [c]
  logP: 7.05^[c]

## CC(=NOCC(CON=C(C)c1nc(C)ccc1C)C(C)(C)C)c1nc(C)ccc1C (single isomer, unassigned) [compound 757]
Method marked [b] in Table 1
  logP: 5.09^[b]
Method marked [c] in Table 1
  logP: 6.38^[c]

## CC(=NOCCCCCON=C(C)c1cccc(C)n1)c1cccc(C)n1 [Compound 11]
[1]
  logP: 3.85^[b]

## CC(=NOCC(C)(C)CON=C(C)c1nccc(C)n1)c1cccc(C)n1 [compound 511]
Value marked [b]
  logP: 3.02^[b]

## C=C(CON=C(C)c1cc(C)cc(C)n1)CON=C(C)c1cc(C)cc(C)n1 [Compound 219]
[1]
  logP: 1.98^[b]

## CC(=NOCC1(CON=C(C)c2nc(C)ccc2C)COC(=O)N1)c1nc(C)ccc1C (centres unmarked) [compound 859]
Value marked [b]
  logP: 1.70^[b]
Value marked [c]
  logP: 2.81^[c]

## C=C(CON=C(C)c1cccc(OC)n1)CON=C(C)c1cccc(OC)n1 [compound 145]
[1]
  logP: 5.89^[b]

## C=C(CON=C(C)c1cccc(C)n1)CON=C(N)c1nccc(C)n1 [compound 187]
[1]
  logP: 1.73^[b]

## C=C(CON=C(Cl)c1cc(C)cc(C)n1)CON=C(Cl)c1cc(C)cc(C)n1 [compound 795]
Value marked [a]
  logP: 4.62^[a]

## C(=NOCCCON=Cc1ccccn1)c1ccccn1 [compound 666]
Method marked [b] in Table 1
  logP: 1.97^[b]

## CC(=NOCCC(C)CCON=C(C)c1cccc(C)n1)c1cccc(C)n1 (centres unmarked) [Compound 75]
[1]
  logP: 4.38^[b]

## CC(=NOCCCCON=C(C)c1cccc(C)n1)c1ccnc(C)c1 [compound 338]
Value marked [b]
  logP: 1.71^[b]

## C=C(CON=C(C)c1cccc(C)n1)CON=C(N)c1nc(C)c2c(n1)CCCC2 [Compound 182]
[1]
  logP: 2.55^[b]

## C=C(CON=C(C)c1cccc(C)n1)CON=C(C)c1c(C)noc1C [compound 198]
[1]
  logP: 3.50^[b]

## C=C(CON=C(C)c1cccs1)CON=C(C)c1nccs1 [compound 78]
[1]
  logP: 4.31^[b]

## CC(=NOCC(C)(C)CON=C(c1cccc(C)n1)C(C)C)c1cccc(C)n1 [compound 547]
Method marked [b] in Table 1
  logP: 4.57^[b]

## CC(=NOCON=C(C)c1nc(C)c(C)s1)c1nc(C)c(C)s1 [compound 126]
[1]
  logP: 4.46^[b]

## CC(=NOCC(C)(C)CON=C(C)c1ccc(C)o1)c1ccc(C)o1 [Compound 698]
Method marked [b] in Table 1
  logP: 5.00^[b]

## CCCC(CON=C(C)c1ccc(C)c(C)n1)CON=C(C)c1ccc(C)c(C)n1 (centres unmarked) [Compound 316]
Value marked [b]
  logP: 4.48^[b]
Value marked [c]
  logP: 7.23^[c]

## Cc1cccc(C(=NOCC(C)CON=C(c2cccc(C)n2)C(C)C)C(C)C)n1 (centres unmarked) [compound 138]
[2]
  logP: 6.22^a]

## COc1ccc(-c2cccc(C(C)=NOCC(C)(C)CON=C(C)c3cccc(-c4ccc(OC)cc4)n3)n2)cc1 [compound 579]
Method marked [a] in Table 1
  logP: 7.36^[a]

## CC(=NOCC(C)CON=C(C)c1ccc(C)c(C)n1)c1cc(Cl)cc(C)n1 (centres unmarked) [compound 876]
Value marked [a]
  logP: 6.52^[a]
Value marked [b]
  logP: 6.52^[b]
Value marked [c]
  logP: 7.36^[c]

## C=C(CON=C(C)c1cccc(Cl)c1)CON=C(C)c1cccc(C)n1 [compound 469]
Value marked [b]
  logP: 5.31^[b]

## CC(=NOCC(C)CON=C(C)c1cccc(C)n1)c1ccccc1 (centres unmarked) [compound 439]
Value marked [b]
  logP: 4.91^[b]

## CCC(=NOCC(C)CON=C(C)c1cccc(C)n1)c1cccc(C)n1 (centres unmarked) [Compound 428]
Value marked [b]
  logP: 4.51^[b]

## CC(=NOCC(=O)ON=C(C)c1cccc(C)n1)c1cccc(C)n1 [compound 158]
[2]
  logP: 2.50^[a]
[1]
  logP: 2.57^b]

## CCC(=NOCCCON=C(CC)c1ncccc1C)c1ncccc1C (single isomer, unassigned) [compound 94]
[2]
  logP: 3.65^[a] (isomer B)

## CCC(=NOCC(C)(C)CON=C(CC)c1cccc(C)n1)c1cccc(C)n1 [Compound 277]
Value marked [a]
  logP: 6.11^[a]

## CC(=NOCC(C)(C)CON=C(CC(C)C)c1cccc(C)n1)c1cccc(C)n1 [Compound 538]
Method marked [b] in Table 1
  logP: 6.47^[b]

## CCCc1cccc(C(C)=NOCCCCCCON=C(C)c2cccc(C)n2)n1 [compound 463]
Value marked [b]
  logP: 6.79^[b]

## CC(=NOCC(C)(C)CON=C(C)c1cc(Cl)cc(C)n1)c1cc(Cl)cc(C)n1 [compound 804]
Value marked [a]
  logP: 7.36^[a]

## CC(=NOCCCCON=C(C)c1cccc(C)n1)c1ccncc1 [compound 440]
Value marked [b]
  logP: 1.88^[b]

## C=C(CON=C(C)c1ccc(Cl)cc1)CON=C(C)c1cccc(C)n1 [compound 471]
Value marked [b]
  logP: 5.48^[b]

## C=C(CON=C(C)c1nc(C)ccc1C)CON=C(C)c1nc(C)ccc1C (single isomer, unassigned) [compound 308]
Value marked [b]
  logP: 1.84^[b]
Value marked [c]
  logP: 2.94^[c]
